Experimental findings from publication PMC8956739, “A synthetic lipopeptide targeting top-priority multidrug-resistant Gram-negative pathogens” (Nature Communications, 2022) are described below.

The test system of data set [1] is P. aeruginosa ATCC 27853. Briefly: Neutropenic mouse bloodstream infection model. In kind it is in vivo. Particulars: single IV dose 4 mg/kg; for Log10 CFU/mL blood at 4 h, Mean / Δlog10 CFU/mL blood (mean) / Log10 CFU/mL blood at 4 h, single mouse: 4 h; for Δlog10 CFU/mL blood (mean): treated minus control, mean of replicates; for Δlog10 CFU/mL blood (mean) / Log10 CFU/mL blood at 4 h, single mouse / Delta Log10 CFU/mL blood at 4 h, single mouse: 4 mg/kg; for Delta Log10 CFU/mL blood at 4 h, single mouse: treated mouse minus mean of vehicle mice. The procedure, abridged:
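Female Swiss mice made neutropenic with cyclophosphamide (150 mg/kg day −4, 100 mg/kg day −1), infected IV with 50 µL of 4 × 10^8 CFU/mL. Lipopeptide 4 mg/kg (free base) IV at 2 h post-inoculation, n = 3. Efficacy = Δlog10 CFU/mL blood versus saline at 4 h post-dose.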

In data set [2] the test system is P. aeruginosa ATCC 27853. It is filed as cell-based, Pseudomonas aeruginosa. The procedure, abridged:
(§1)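 Read-out is the minimum inhibitory concentration, obtained by serially diluting compound in cation-adjusted Mueller–Hinton medium and exposing each isolate in microdilution format.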

Data set [3] relates to P. aeruginosa FADDI-PA025. It is filed as cell-based, Pseudomonas aeruginosa. The procedure, abridged: as §1
Data set [4] deals with P. aeruginosa FADDI-PA038. It is filed as cell-based, Pseudomonas aeruginosa. Summed up: as §1
The test system of data set [5] is K. pneumoniae FADDI-KP032. In kind it is cell-based, Klebsiella pneumoniae. Summed up: as §1
Data set [6] deals with K. pneumoniae FADDI-KP065. In kind it is cell-based, Klebsiella pneumoniae. The procedure, abridged: as §1
The next data set has as its system wild-type HK-2 cells. As to the kind of experiment: in vitro. Particulars: human, wild-type HK-2 cells (kidney proximal tubular), 24 h. It is filed as cell-based, human. The method, then:
(§2) Fig. 6 Transcriptomic changes in human kidney proximal tubular HK-2 cells following treatments with polymyxin B (PMB), colistin (COL), F287, F319, and F365. a Numbers of differentially expressed genes. Distinctive intersections are color-coded. b Cell viability difference (two-tailed Student’s t-test, n = 4 biologically independent cells, Benjamini–Hochberg adjusted P-values) between wild-type HK-2 and KCNJ16 knockout (KO) cells following 24 h treatment with lipopeptides. n.s., not significant; ^*adjusted P < 0.05, ^**adjusted P < 0.01, ^***adjusted P < 0.001. Data are shown as mean ± s.d. and individual data points. c Extracted transcriptional regulatory network from Signor database with 1-step neighbor constraints (enlarged for detail). Source data are provided as a Source Data file.

A short description of a further data set: in vitro. Conditions: human, wild-type HK-2 cells (kidney proximal tubular), Cell viability, WT. In kind it is cell-based, human. As for the experimental part: as §2
Data set [7] concerns MDR clinical isolates of Enterobacterales (n = 177, 152 carbapenem-resistant). As to the kind of experiment: Extended MIC screening, MDR clinical isolates. It is filed as cell-based. The method, then: MICs were determined in cation-adjusted Mueller–Hinton broth (CaMHB) by the broth micro-dilution method against ATCC strains and clinical isolates. MICs in the presence of Survanta® were determined as described above against P. aeruginosa ATCC 27853. In the 100 μL of fresh CaMHB containing polymyxins, 10% Survanta® (v/v, 2.5 mg/mL phospholipids) was added. MICs in the presence and absence of Survanta® were compared to determine the effect of binding to lung surfactant on the antibacterial activity of polymyxins.

In data set [8] the test system is MDR clinical isolates of P. aeruginosa (n = 213, 55 carbapenem-resistant). It is filed as cell-based, Pseudomonas aeruginosa. Summed up: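 Broth microdilution, CaMHB; MIC read as the antibacterial endpoint against ATCC reference strains and clinical isolates.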
Setting [9] is: MDR clinical isolates of (n = 213, 55 carbapenem-resistant).

≈ marks a conversion by molar mass, not a printed value. Where “and” joins values, the source holds several entries; their conditions need not be identical. Identical values can stand only once. Like-named read-outs stand apart in the source and are kept apart here. Residues, ends and D or L forms follow the SMILES beside them.

Consider Colistin [reference compound], for which, in the data set with P. aeruginosa ATCC 27853 [1], the “Log10 CFU/mL blood at 4 h, Mean” value was determined as 5.05 Log10 CFU/mL blood; the “Δlog10 CFU/mL blood (mean)” value is -2.39 log10 CFU/mL blood; the “Log10 CFU/mL blood at 4 h, single mouse” value was 5.25 Log10 CFU/mL blood and 4.89 Log10 CFU/mL blood and 5.02 Log10 CFU/mL blood; the “Delta Log10 CFU/mL blood at 4 h, single mouse” value (from here on “Delta Log10 CFU/mL blood at 4 h”) is -2.19 Log10 CFU/mL blood and -2.56 Log10 CFU/mL blood and -2.42 Log10 CFU/mL blood. In addition, the “Δlog10 CFU/mL blood (mean)” value in the data set with P. aeruginosa ATCC 27853 [1] (listed as COL) is on record as −2.39 log10 CFU/mL blood. Also, in the data set with P. aeruginosa ATCC 27853 [2], the “MIC P. aeruginosa ATCC 27853” value is 0.5 µg/mL. Moreover, the “increase of MIC in the presence of lung surfactant” value with P. aeruginosa ATCC 27853 [2] (10% Survanta vs none) turned out to be 8 fold. In the data set with P. aeruginosa ATCC 27853 [2] (P. aeruginosa ATCC 27853, 10% Survanta), this compound had an MIC, 10% Survanta of 8 µg/mL. In addition, the MIC, No Survanta against P. aeruginosa ATCC 27853 [2] (P. aeruginosa ATCC 27853, no surfactant) amounted to 1 µg/mL. Also, in data set [3] (MDR clinical isolate), the “MIC P. aeruginosa FADDI-PA025” value worked out at 2 µg/mL. Besides, the “MIC P. aeruginosa FADDI-PA038” value in data set [4] (carbapenem-resistant isolate) is 1 µg/mL. Besides, the “MIC K. pneumoniae FADDI-KP032” value in data set [5] (carbapenem-resistant isolate) is on record as 1 µg/mL. For the same compound, the “MIC K. pneumoniae FADDI-KP065” value in data set [6] (carbapenem-resistant isolate) is given as 0.25 µg/mL. Further, in the data set on wild-type HK-2 cells, the “Cell viability, WT, Rep1” value came out at 52.6875; the “Cell viability, WT, Rep2” value worked out at 59.5382; the “Cell viability, WT, Rep4” value is on record as 47.0908.

The viability is a read-out of living cells in per cent, often relative to untreated cells. A higher viability goes with better survival. Take `CCCCCCCC(=O)N[C@@H](CCN)C(=O)N[C@H](C(=O)N[C@@H](CCN)C(=O)N[C@H]1CCNC(=O)[C@H]([C@@H](C)O)NC(=O)[C@H](CCN)NC(=O)[C@H](CCN)NC(=O)[C@H](CC)NC(=O)[C@@H](CC(C)C)NC(=O)[C@H](CCN)NC1=O)[C@@H](C)O` [Lipopeptide F319] (HELM PEPTIDE1{[CCCCCCCC(=O)[*:2]].[Dab].T.[Dab].[Dab].[Dab].[dL].[Abu].[Dab].[Dab].T}$PEPTIDE1,PEPTIDE1,5:R3-11:R2$$$V2.0): in the data set with P. aeruginosa ATCC 27853 [1], the “Log10 CFU/mL blood at 4 h, Mean” value is listed as 4.01 Log10 CFU/mL blood; the “Δlog10 CFU/mL blood (mean)” value is listed as −3.44 log10 CFU/mL blood; the “Log10 CFU/mL blood at 4 h, single mouse” value was 3.87 Log10 CFU/mL blood and 4.06 Log10 CFU/mL blood and 4.10 Log10 CFU/mL blood; the “Delta Log10 CFU/mL blood at 4 h” value is -3.57 Log10 CFU/mL blood and -3.38 Log10 CFU/mL blood and -3.35 Log10 CFU/mL blood. In the data set with P. aeruginosa ATCC 27853 [2] (ATCC 27853), the “MIC P. aeruginosa ATCC 27853” value was 0.5 µg/mL (≈ 0.443 µM) and the MIC, No Survanta worked out at 1 µg/mL (≈ 0.887 µM). Moreover, in data set [3] (FADDI-PA025), the “MIC P. aeruginosa FADDI-PA025” value came out at 4 µg/mL (≈ 3.55 µM). Also, the “MIC P. aeruginosa FADDI-PA038” value in data set [4] (FADDI-PA038) was 4 µg/mL (≈ 3.55 µM). Besides, in data set [5] (FADDI-KP032), the “MIC K. pneumoniae FADDI-KP032” value turned out to be 0.25 µg/mL (≈ 0.222 µM). Moreover, in data set [6] (FADDI-KP065), the “MIC K. pneumoniae FADDI-KP065” value was less than 0.125 µg/mL. Also, the viability at 24 h in the data set “in vitro” (Rep1) is 79%. For the same compound, in “in vitro” (Rep2), the viability at 24 h came to 79.1%. In addition, the viability at 24 h in “in vitro” (Rep3) was determined as 78.8%. This compound also had a viability at 24 h in “in vitro” (Rep4) of 70.1%.

Usually MIC50 stands for an inhibitory concentration at the 50% level, which refers to growth in some studies and to a panel of isolates in others. Lower therefore signals greater potency. The term MIC90 denotes the lowest concentration that inhibits either 90% of growth or 90% of the strains tested, depending on the study. The low end stands for higher susceptibility, the high end for lower susceptibility. Regarding `CCCCCCCC(=O)N[C@@H](CCN)C(=O)N[C@H](C(=O)N[C@@H](CN)C(=O)N[C@H]1CCNC(=O)[C@H]([C@@H](C)O)NC(=O)[C@H](CCN)NC(=O)[C@H](CCN)NC(=O)[C@H](CC)NC(=O)[C@@H](CC(C)C)NC(=O)[C@H](CCN)NC1=O)[C@@H](C)O` [Lipopeptide F287] (HELM PEPTIDE1{[CCCCCCCC(=O)[*:2]].[Dab].T.[NC[C@H](N[*:1])C(=O)[*:2]].[Dab].[Dab].[dL].[Abu].[Dab].[Dab].T}$PEPTIDE1,PEPTIDE1,5:R3-11:R2$$$V2.0), in the data set with P. aeruginosa ATCC 27853 [1], the “Log10 CFU/mL blood at 4 h, Mean” value worked out at 5.02 Log10 CFU/mL blood. The “Δlog10 CFU/mL blood (mean)” value in the data set on P. aeruginosa ATCC 27853 [1] was −2.42 log10 CFU/mL blood. In the data set with P. aeruginosa ATCC 27853 [1], the “Log10 CFU/mL blood at 4 h, single mouse” value was 5.21 Log10 CFU/mL blood and 4.68 Log10 CFU/mL blood and 5.18 Log10 CFU/mL blood. Besides, the “Delta Log10 CFU/mL blood at 4 h” value in the data set with P. aeruginosa ATCC 27853 [1] was -2.23 Log10 CFU/mL blood and -2.77 Log10 CFU/mL blood and -2.27 Log10 CFU/mL blood. Besides, the Number of isolates came to 0 in data set [7] (isolates with MIC 0.05 µg/mL); 0 in [7] (isolates with MIC 0.125 µg/mL); 17 in data set [7] (isolates with MIC 0.25 µg/mL); 131 in data set [7] (isolates with MIC 0.5 µg/mL); 5 in data set [7] (isolates with MIC 1 µg/mL); 2 in data set [7] (isolates with MIC 2 µg/mL). The Number of isolates in data set [7] (isolates with MIC 4 µg/mL) amounted to 1; in data set [7] (isolates with MIC 8 µg/mL) it was 2; in [7] (isolates with MIC 16 µg/mL) it was 5; in [7] (isolates with MIC 32 µg/mL) it was 7; in data set [7] (isolates with MIC 64 µg/mL), 3; in [7] (isolates with MIC >64 µg/mL) it was 4. Moreover, the Number of isolates is listed as 0 in data set [8] (isolates with MIC 0.05 μg/mL (so in the source)); 0 in data set [8] (isolates with MIC 0.125 μg/mL (so in the source)); 7 in data set [8] (isolates with MIC 0.25 μg/mL (so in the source)); 26 in data set [8] (isolates with MIC 0.5 μg/mL (so in the source)); 168 in data set [8] (isolates with MIC 1 μg/mL (so in the source)); 9 in [8] (isolates with MIC 2 μg/mL (so in the source)). For the same compound, the Number of isolates in [8] (isolates with MIC 4 μg/mL (so in the source)) is recorded as 0; in data set [8] (isolates with MIC 8 μg/mL (so in the source)) it was 1; in data set [8] (isolates with MIC 16 μg/mL (so in the source)), 0; in data set [8] (isolates with MIC 32 μg/mL (so in the source)), 2; in data set [8] (isolates with MIC 64 μg/mL (so in the source)), 0; in data set [8] (isolates with MIC >64 μg/mL (so in the source)), 0. This compound also yielded an MIC50 in data set [8] (setting [9]) of 1 µg/mL (≈ 0.898 µM). In data set [8] (setting [9]), this compound showed an MIC90 of 1 µg/mL (≈ 0.898 µM). Besides, the “MIC P. aeruginosa ATCC 27853” value with P. aeruginosa ATCC 27853 [2] (ATCC 27853) amounted to 0.5 µg/mL (≈ 0.449 µM). The compound also returned an MIC, No Survanta against P. aeruginosa ATCC 27853 [2] (ATCC 27853) of 1 µg/mL (≈ 0.898 µM). In addition, the “MIC P. aeruginosa FADDI-PA025” value in data set [3] (FADDI-PA025) was 2 µg/mL (≈ 1.8 µM). For the same compound, the “MIC P. aeruginosa FADDI-PA038” value in data set [4] (FADDI-PA038) came to 0.5 µg/mL (≈ 0.449 µM). Moreover, the “MIC K. pneumoniae FADDI-KP032” value in data set [5] (FADDI-KP032) is listed as less than 0.125 µg/mL. Further, in data set [6] (FADDI-KP065), the “MIC K. pneumoniae FADDI-KP065” value is less than 0.125 µg/mL. For the same compound, the viability at 24 h in the data set “in vitro” (Rep1) is 52%; in the data set “in vitro” (Rep2), 54.3%; in “in vitro” (Rep4), 47%.
